Data from patent US9000162B2, “5,8-difluoro-4-(2-(4-(heteroaryloxy)-phenyl)ethylamino)quinazolines and their use as agrochemicals” (Dow AgroSciences LLC, priority 2008, dated 2015).

Experiments:
Type in all cases: in vivo
[1] = tested on: Pseudoperonospora cubensis (PSPECU); experiment: Cucumber downy mildew foliar protectant test; conditions: 200 ppm foliar, inoculated one day after treatment, read-out: Activity against fungal diseases PSPECU
Experimental: The plants were inoculated with the fungus one day after treatment. ***=80-100% control; **=50-79% control; *=0-49% control. It will be understood by those in the art that the efficacy of the compounds against the foregoing fungi establishes the general utility of the compounds as fungicides. The activity of the compounds as effective fungicides was determined by applying the compounds to plants and observing control of fungal disease. […] All plants were inoculated with spores of the fungus the day after treatment, then incubated in an environment conducive to disease development. Disease severity was evaluated 4 to 25 days later, depending on the speed of disease development. The following experiments were performed in the laboratory to determine the fungicidal efficacy of the compounds of the invention. Cucumber Downy Mildew (Causal Agent Pseudoperonospora cubensis; Bayer Code […]): Cucumber plants (variety “Bush Champion' or 'Bush Pickle Hybrid') were grown from seed in a soil-less peat-based potting mixture (Metromix) until the first true leaf was 20-80% expanded. Each pot contained 1 seedling. These plants were sprayed until wet with the formulated test compound. On the following day, the leaves were inoculated with an aqueous suspension of downy mildew sporangia and the plants were kept in high humidity for one day to permit sporangia to germinate and infect the leaf. The plants were then incubated in a growth chamber until disease developed on untreated control plants. Table 1 presents the activity of typical compounds of the present invention when evaluated in these experiments. The effectiveness of the test compounds at controlling disease when sprayed on leaves was determined by assessing the severity of disease on treated plants, then converting the severity to percent control based on the level of disease on untreated, inoculated plants.

[2] = tested on: Puccinia recondita tritici (PUCCRT); experiment: Leaf rust of wheat foliar protectant test; conditions: read-out: Activity against fungal diseases PUCCRT; for pest or weed control at 200 ppm: 200 ppm foliar, inoculated one day after treatment; for pest or weed control at 3 ppm: foliar, Tested at 3 ppm (footnote a)
Experimental: (§1) The plants were inoculated with the fungus one day after treatment. ***=80-100% control; **=50-79% control; *=0-49% control. It will be understood by those in the art that the efficacy of the compounds against the foregoing fungi establishes the general utility of the compounds as fungicides. The activity of the compounds as effective fungicides was determined by applying the compounds to plants and observing control of fungal disease. […] All plants were inoculated with spores of the fungus the day after treatment, then incubated in an environment conducive to disease development. Disease severity was evaluated 4 to 25 days later, depending on the speed of disease development. The following experiments were performed in the laboratory to determine the fungicidal efficacy of the compounds of the invention. […] Each pot contained 3-8 seedlings. These plants were sprayed until wet with the formulated test compounds. On the following day, the leaves were inoculated with an aqueous spore suspension of Puccinia recondita tritici and the plants were kept in high humidity overnight to permit spores to germinate and infect the leaf. The plants were then transferred to a greenhouse until disease developed on untreated control plants. Table 1 presents the activity of typical compounds of the present invention when evaluated in these experiments. The effectiveness of the test compounds at controlling disease when sprayed on leaves was determined by assessing the severity of disease on treated plants, then converting the severity to percent control based on the level of disease on untreated, inoculated plants.

[3] = tested on: Septoria tritici (SEPTTR); experiment: Septoria blotch of wheat foliar protectant test; conditions: Zymoseptoria tritici, read-out: Activity against fungal diseases SEPTTR; for pest or weed control at 200 ppm: 200 ppm foliar, inoculated one day after treatment; for pest or weed control at 25 ppm: foliar, Tested at 25 ppm (footnote b)
Experimental: as §1, with “3-10” for “3-8”, “compound.” for “compounds.”, “Septoria” for “Puccinia recondita”, “(one day in a dark dew chamber followed by three days in a lighted dew chamber)” for “overnight”

[4] = tested on: Magnaporthe grisea = Pyricularia oryzae (PYRIOR); experiment: whole plant or invertebrate; conditions: foliar, read-out: Activity against fungal diseases PYRIOR

Compound | pest or weed control at 200 ppm [1] | pest or weed control at 200 ppm [2] | pest or weed control at 200 ppm [3] | pest or weed control at 200 ppm [4] | pest or weed control at 25 ppm [3] | pest or weed control at 3 ppm [2]
Cc1cc(Oc2cc(C(F)(F)F)ccn2)ccc1CCNc1ncnc2c(F)ccc(F)c12 [Compound 55] | 80 to 100% | 80 to 100% | 80 to 100% | 80 to 100% | – | –
COc1ccc(CCNc2ncnc3c(F)ccc(F)c23)cc1C [Compound 21] | 80 to 100% | 50 to 79% | – | 50 to 79% | 0 to 49% | –
COc1cc(CCNc2ncnc3c(F)ccc(F)c23)ccc1O [Compound 14] | 50 to 79% | 0 to 49% | – | 0 to 49% | 0 to 49% | –
Fc1cc(CCNc2ncnc3c(F)ccc(F)c23)ccc1Oc1ccc(C(F)(F)F)cn1 [Compound 130] | 80 to 100% | 80 to 100% | 80 to 100% | 80 to 100% | – | –
COc1cc(C(C)(F)F)cc(Oc2ccc(CCNc3ncnc4c(F)ccc(F)c34)cc2)n1 [Compound 11] | 80 to 100% | 80 to 100% | 80 to 100% | 50 to 79% | – | –
CC(Nc1ncnc2c(F)ccc(F)c12)c1ccccc1 (stereo not shown) [Compound 119] | 80 to 100% | 80 to 100% | 80 to 100% | 80 to 100% | – | –
Fc1ccc(F)c2c(NCCc3ccc(Oc4ccnc(C(F)(F)F)c4Cl)cc3)ncnc12 [Compound 96] | 80 to 100% | 80 to 100% | 80 to 100% | 80 to 100% | – | –
COc1cc(CCNc2ncnc3c(F)ccc(F)c23)ccc1Oc1ccnc(C(F)(F)F)c1 [Compound 77] | 80 to 100% | 80 to 100% | 80 to 100% | 80 to 100% | – | –
COc1cc(CCNc2ncnc3c(F)ccc(F)c23)ccc1Oc1cc(Cl)nc(C(F)(F)F)n1 [Compound 104] | – | 80 to 100% | 0 to 49% | 80 to 100% | – | –
Fc1ccc(F)c2c(NCCc3ccc(Oc4ccnc(C(F)(F)F)c4)cc3)ncnc12 [Compound 71] | – | – | – | – | 80 to 100% | 80 to 100%
Fc1ccc(F)c2c(OCCc3ccc(OCC(F)(F)F)cc3)ncnc12 [Compound 121] | – | – | – | – | 50 to 79% | 0 to 49%
Oc1ccc(CCNc2ncnc3c(F)ccc(F)c23)cc1Br [Compound 38] | 0 to 49% | 0 to 49% | – | 0 to 49% | – | –
Cc1ccnc(Oc2ccc(CCNc3ncnc4c(F)ccc(F)c34)cc2)c1 [Compound 128] | – | – | – | – | 50 to 79% | 80 to 100%
CC(CNc1ncnc2c(F)ccc(F)c12)c1ccc(Oc2cnccc2C(F)(F)F)cc1 (stereo not shown) [Compound 141] | – | – | – | – | 80 to 100% | 80 to 100%
Fc1ccc(F)c2c(NCCc3ccc(Oc4cc(C(F)(F)F)ncn4)cc3)ncnc12 [Compound 109] | – | 80 to 100% | 80 to 100% | 80 to 100% | – | –
COc1ccc2c(c1)CC(Nc1ncnc3c(F)ccc(F)c13)C2 (stereo not shown) [Compound 105] | – | 80 to 100% | 0 to 49% | 80 to 100% | – | –
CC(CNc1ncnc2c(F)ccc(F)c12)c1ccc(Oc2cc(C(F)(F)F)ncn2)cc1 (stereo not shown) [Compound 142] | – | – | – | – | 80 to 100% | 80 to 100%
Fc1ccc(F)c2c(NCCc3ccc(Oc4ncccc4C(F)(F)F)cc3)ncnc12 [Compound 13] | – | – | – | – | 80 to 100% | 80 to 100%

Compound | pest or weed control at 200 ppm [1] | pest or weed control at 200 ppm [2] | pest or weed control at 200 ppm [3] | pest or weed control at 200 ppm [4] | pest or weed control at 25 ppm [3] | pest or weed control at 3 ppm [2]
Cc1cc(C(F)(F)F)cc(Oc2cc(C)c(CCNc3ncnc4c(F)ccc(F)c34)cc2C)n1 [Compound 22] | – | 80 to 100% | – | 50 to 79% | 80 to 100% | –
Fc1ccc(F)c2c(NCCc3ccc(Oc4cncc(C(F)(F)F)c4)cc3)ncnc12 [Compound 123] | – | – | – | – | 80 to 100% | 80 to 100%
CC(Cc1ccc(Oc2cc(C(F)(F)F)ccn2)cc1)Nc1ncnc2c(F)ccc(F)c12 (stereo not shown) [Compound 134] | – | – | – | – | 80 to 100% | 80 to 100%
COC(=O)c1cnc(Oc2ccc(CCNc3ncnc4c(F)ccc(F)c34)cc2C)cc1C(F)(F)F [Compound 36] | 80 to 100% | 80 to 100% | – | – | 0 to 49% | –
CC(Cc1ccc(Oc2ccc(C(F)(F)F)cn2)cc1)Nc1ncnc2c(F)ccc(F)c12 (stereo not shown) [Compound 136] | – | – | – | – | 80 to 100% | 80 to 100%
CC(CNc1ncnc2c(F)ccc(F)c12)c1ccc(Oc2cc(C(F)(F)F)ccn2)cc1 (stereo not shown) [Compound 144] | – | – | – | – | 80 to 100% | 80 to 100%
Fc1ccc(F)c2c(NCCc3ccc(Oc4cc(Cl)nc(C(F)(F)F)n4)cc3)ncnc12 [Compound 103] | – | 80 to 100% | 0 to 49% | 80 to 100% | – | –
Cc1cc(CCNc2ncnc3c(F)ccc(F)c23)ccc1Oc1nc(C(F)(F)F)nc(F)c1F [Compound 102] | – | 80 to 100% | 0 to 49% | 80 to 100% | – | –
CC(CNc1ncnc2c(F)ccc(F)c12)c1ccc(Oc2ncc(C(F)(F)F)cc2F)cc1 (stereo not shown) [Compound 145] | – | – | – | – | 50 to 79% | 0 to 49%
COc1cc(CCNc2ncnc3c(F)cc(F)c(F)c23)ccc1O [Compound 33] | – | – | – | – | 0 to 49% | 0 to 49%
CC(Cc1ccc(Oc2cnccc2C(F)(F)F)cc1)Nc1ncnc2c(F)ccc(F)c12 (stereo not shown) [Compound 138] | – | – | – | – | 80 to 100% | 80 to 100%
CC(Cc1ccc(Oc2ncc(C(F)(F)F)cc2F)cc1)Nc1ncnc2c(F)ccc(F)c12 (stereo not shown) [Compound 137] | – | – | – | – | 80 to 100% | 50 to 79%
Fc1cc(F)c2ncnc(NCCc3ccc(Oc4cc(C(F)(F)F)ccn4)c(Cl)c3)c2c1F [Compound 92] | – | 50 to 79% | 50 to 79% | 80 to 100% | – | –
COc1ccc(C(C)Nc2ncnc3c(F)ccc(F)c23)cc1 (stereo not shown) [Compound 120] | – | 80 to 100% | 0 to 49% | – | – | –
Oc1cccc(CCNc2ncnc3c(F)ccc(F)c23)c1 [Compound 35] | 80 to 100% | 50 to 79% | – | – | – | –
COc1ccc(C(C)CNc2ncnc3c(F)ccc(F)c23)cc1 (stereo not shown) [Compound 139] | – | – | – | – | 0 to 49% | 0 to 49%
CC(Cc1ccc(Oc2cc(C(F)(F)F)ncn2)cc1)Nc1ncnc2c(F)ccc(F)c12 (stereo not shown) [Compound 135] | – | – | – | – | 80 to 100% | 80 to 100%
CC(CNc1ncnc2c(F)ccc(F)c12)c1ccc(Oc2ccc(C(F)(F)F)cn2)cc1 (stereo not shown) [Compound 143] | – | – | – | – | 80 to 100% | 0 to 49%
